Reference: ChEMBL document CHEMBL1152187, “Synthesis of C4-fluorinated solamins and their growth inhibitory activity against human cancer cell lines” (2008)

Experiments:
Format in all cases: functional
NCI-H226 = test: Growth inhibition of human NCI-H226 cells by sulforhodamine B assay
NCI-H460 = test: Growth inhibition of human NCI-H460 cells by sulforhodamine B assay
[1] = Growth inhibition of human HBC5 cells by sulforhodamine B assay
[2] = Growth inhibition of human MKN1 cells by sulforhodamine B assay; conditions: MKN-1
MKN-28 = test: Growth inhibition of human MKN28 cells by sulforhodamine B assay
OVCAR-8 = test: Growth inhibition of human OVCAR8 cells by sulforhodamine B assay
OVCAR-5 = test: Growth inhibition of human OVCAR5 cells by sulforhodamine B assay
MKN-74 = test: Growth inhibition of human MKN74 cells by sulforhodamine B assay
HT-29 = test: Growth inhibition of human HT-29 cells by sulforhodamine B assay
DMS-273 = test: Growth inhibition of human DMS273 cells by sulforhodamine B assay
SNB-78 = test: Growth inhibition of human SNB-78 cells by sulforhodamine B assay
MKN-7 = test: Growth inhibition of human MKN7 cells by sulforhodamine B assay
[3] = Growth inhibition of human HBC4 cells by sulforhodamine B assay
HCC 2998 = test: Growth inhibition of human HCC2998 cells by sulforhodamine B assay
SF-295 = test: Growth inhibition of human SF295 cells by sulforhodamine B assay
SK-OV-3 = test: Growth inhibition of human SKOV3 cells by sulforhodamine B assay
[4] = Growth inhibition of human BSY1 cells by sulforhodamine B assay; conditions: BSY-1
MKN-45 = test: Growth inhibition of human MKN45 cells by sulforhodamine B assay
OVCAR-4 = test: Growth inhibition of human OVCAR4 cells by sulforhodamine B assay
SNB-75 = test: Growth inhibition of human SNB75 cells by sulforhodamine B assay
[5] = Growth inhibition of human RXF631L cells by sulforhodamine B assay; conditions: RXF 631
U-251 = test: Growth inhibition of human U251 cells by sulforhodamine B assay
DMS-114 = test: Growth inhibition of human DMS114 cells by sulforhodamine B assay
LOX IMVI = test: Growth inhibition of human LOXIMVI cells by sulforhodamine B assay
PC-3 = test: Growth inhibition of human PC3 cells by sulforhodamine B assay
ACHN = test: Growth inhibition of human ACHN cells by sulforhodamine B assay
MDA-MB-231 = test: Growth inhibition of human MDA-MB-231 cells by sulforhodamine B assay
SF-539 = test: Growth inhibition of human SF539 cells by sulforhodamine B assay
NCI-H522 = test: Growth inhibition of human NCI-H522 cells by sulforhodamine B assay
SF-268 = test: Growth inhibition of human SF268 cells by sulforhodamine B assay
A549 = test: Growth inhibition of human A549 cells by sulforhodamine B assay
HCT-116 = test: Growth inhibition of human HCT116 cells by sulforhodamine B assay
St-4 = test: Growth inhibition of human St-4 cells by sulforhodamine B assay
HCT-15 = test: Growth inhibition of human HCT15 cells by sulforhodamine B assay
NCI-H23 = test: Growth inhibition of human NCI-H23 cells by sulforhodamine B assay
KM12 = test: Growth inhibition of human KM12 cells by sulforhodamine B assay
OVCAR-3 = test: Growth inhibition of human OVCAR-3 cells by sulforhodamine B assay
DU-145 = test: Growth inhibition of human DU145 cells by sulforhodamine B assay
MCF7 = test: Growth inhibition of human MCF7 cells by sulforhodamine B assay

SMILES | GI50 (NCI-H226) [µM] | GI50 (NCI-H460) [µM] | GI50 [1] [µM] | GI50 [2] [µM] | GI50 (MKN-28) [µM] | GI50 (OVCAR-8) [µM] | GI50 (OVCAR-5) [µM] | GI50 (MKN-74) [µM] | GI50 (HT-29) [µM] | GI50 (DMS-273) [µM] | GI50 (SNB-78) [µM] | GI50 (MKN-7) [µM] | GI50 [3] [µM] | GI50 (HCC 2998) [µM] | GI50 (SF-295) [µM] | GI50 (SK-OV-3) [µM] | GI50 [4] [µM] | GI50 (MKN-45) [µM] | GI50 (OVCAR-4) [µM] | GI50 (SNB-75) [µM] | also measured
CCCCCCCCCCCC[C@@H](O)[C@H]1CC[C@H]([C@H](O)CCCCCCCCCC[C@@H](O)CC2=C[C@H](C)OC2=O)O1 [MURISOLIN] | 29 | > 100 | 9.7 | 20 | 2.8 | 38 | > 100 | 4.6 | > 100 | 72 | 78 | 0.7 | > 100 | > 100 | 7.3 | > 100 | 8.3 | > 100 | 6.9 | 39 | GI50 [5]: 40 µM; GI50 (U-251): 7.3 µM; GI50 (DMS-114): < 0.01 µM; GI50 (LOX IMVI): 1.9 µM; GI50 (PC-3): 17 µM; GI50 (ACHN): > 100 µM; GI50 (MDA-MB-231): > 100 µM; GI50 (SF-539): 88 µM; GI50 (NCI-H522): 3.6 µM; GI50 (SF-268): > 100 µM; GI50 (A549): 96 µM; GI50 (HCT-116): 3.7 µM; GI50 (St-4): 41 µM; GI50 (HCT-15): 51 µM; GI50 (NCI-H23): 0.22 µM; GI50 (KM12): > 100 µM; GI50 (OVCAR-3): 6.9 µM; GI50 (DU-145): > 100 µM; GI50 (MCF7): 3.9 µM
CCCCCCCCCCCC[C@@H](O)[C@H]1CC[C@H]([C@H](O)CCCCCCCCCCCCC2=C[C@H](C)OC2=O)O1 [REL-SOLAMIN] | > 100 | > 100 | > 100 | > 100 | 14 | > 100 | > 100 | > 100 | > 100 | > 100 | > 100 | 13 | > 100 | > 100 | 40 | > 100 | > 100 | > 100 | > 100 | > 100 | GI50 [5]: > 100 µM; GI50 (U-251): > 100 µM; GI50 (DMS-114): 4.3 µM; GI50 (LOX IMVI): 29 µM; GI50 (PC-3): > 100 µM; GI50 (ACHN): > 100 µM; GI50 (MDA-MB-231): > 100 µM; GI50 (SF-539): > 100 µM; GI50 (NCI-H522): 58 µM; GI50 (SF-268): > 100 µM; GI50 (A549): > 100 µM; GI50 (HCT-116): > 100 µM; GI50 (St-4): > 100 µM; GI50 (HCT-15): > 100 µM; GI50 (NCI-H23): 73 µM; GI50 (KM12): > 100 µM; GI50 (OVCAR-3): > 100 µM; GI50 (DU-145): > 100 µM; GI50 (MCF7): 71 µM
